Columns and labels:
Assay in all cases: Bliss excess, mean over the matrix (fraction); higher = more synergy
[1] = test system: CHSA8926 (Chondrosarcoma)
Outline: (§1)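 Cell lines grown in DMEM/F12 or RPMI with 10% FBS were plated in 1536-well plates and held 24 hours at 37°C, 5% CO2 before 72 hours of exposure to two-drug dose matrices, with DMSO typically at 0.2%. CellTiter-Glo 2.0 luminescence gave viability, which was converted to inhibition. Vehicle wells were set to 0 and blank wells to 1. Combination Emax is the second-highest inhibition in the matrix, and Bliss excess is the observed combination effect minus the expected EA + EB − EA·EB, where EA and EB are the single-agent effects.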

[2] = test system: DAN-G (Pancreatic Carcinoma)
Outline: as §1

[3] = test system: ESO51 (Esophageal Adenocarcinoma)
Outline: as §1

[4] = test system: HCC1187 (Breast Carcinoma)
Outline: as §1

[5] = test system: HCC1419 (Breast Carcinoma)
Outline: as §1

[6] = test system: IM-95 (Gastric Carcinoma)
Outline: as §1

[7] = test system: KMS-12-BM (Plasma Cell Myeloma)
Outline: as §1

[8] = test system: KP-3 (Pancreatic Carcinoma)
Outline: as §1

[9] = test system: KYSE-270 (Esophageal Squamous Cell Carcinoma)
Outline: as §1

M059J (Glioblastoma) = test system: M059J (Glioblastoma)
Outline: as §1

[10] = test system: MN-60 (B-Lymphoblastic Leukemia)
Outline: as §1

[11] = test system: MOLM-13 (Acute Myeloid Leukemia)
Outline: as §1

NCI-H2731 (Mesothelioma) = test system: NCI-H2731 (Mesothelioma)
Outline: as §1

[12] = test system: NCI-H520 (Squamous Cell Lung Carcinoma)
Outline: as §1

[13] = test system: NCI-H526 (Small Cell Lung Carcinoma)
Outline: as §1

SJSA-1 (Osteosarcoma) = test system: SJSA-1 (Osteosarcoma)
Outline: as §1

[14] = test system: SK-GT-2 (Gastric Carcinoma)
Outline: as §1

[15] = test system: SNU-398 (Hepatocellular Carcinoma)
Outline: as §1

[16] = test system: ST486 (Burkitt's Lymphoma)
Outline: as §1

[17] = test system: T-T (Esophageal Squamous Cell Carcinoma)
Outline: as §1

SMILES	Bliss excess [1]	Bliss excess [2]	Bliss excess [3]	Bliss excess [4]	Bliss excess [5]	Bliss excess [6]	Bliss excess [7]	Bliss excess [8]	Bliss excess [9]	Bliss excess (M059J (Glioblastoma))	Bliss excess [10]	Bliss excess [11]	Bliss excess (NCI-H2731 (Mesothelioma))	Bliss excess [12]	Bliss excess [13]	Bliss excess (SJSA-1 (Osteosarcoma))	Bliss excess [14]	Bliss excess [15]	Bliss excess [16]	Bliss excess [17]
Cn1cnc2c(F)c(Nc3ccc(Br)cc3Cl)c(C(=O)NOCCO)cc21 [Selumetinib] + C[C@@H]1COCCN1C2=NC(=NC(=C2)C3(CC3)[S@](=N)(=O)C)C4=C5C=CNC5=NC=C4 [AZD6738] (first compound max 10 µM, 7x7, partner max 10 µM)	-0.031	0.0105	0.0119	-0.0539	-0.0522	0.0554	0.0112	-0.0459	-0.0302	-0.056	-0.0319	0.0491	-0.0187	-0.0804	-0.0544	0.0241	-0.0229	0.0082	-0.0592	-0.041
Cc1c2c(nn1C)CSCc1cc(n(C)n1)CSc1cc(c3ccccc3c1)OCCCc1c(C(=O)O)n(C)c3c-2c(Cl)ccc13 [AZD5991] + CC1(C)CCC(CN2CCN(c3ccc(C(=O)NS(=O)(=O)c4ccc(NCC5CCOCC5)c([N+](=O)[O-])c4)c(Oc4cnc5[nH]ccc5c4)c3)CC2)=C(c2ccc(Cl)cc2)C1 [Venetoclax] (first compound max 1 µM, 7x7, partner max 1 µM)	-0.031	-0.0352	-0.0008	0.0026	0.0157	0.0119	0.0301	-0.0533	0.0348	-0.0539	-0.031	0.125	-0.0519	-0.0019	0.243	-0.0941	-0.0035	-0.0013	0.0088	-0.0051
Cc1c2c(nn1C)CSCc1cc(n(C)n1)CSc1cc(c3ccccc3c1)OCCCc1c(C(=O)O)n(C)c3c-2c(Cl)ccc13 [AZD5991] + C[C@@H]1COCCN1C2=NC(=NC(=C2)C3(CC3)[S@](=N)(=O)C)C4=C5C=CNC5=NC=C4 [AZD6738] (first compound max 1 µM, 7x7, partner max 10 µM)	-0.0081	0.0265	0.0124	0.0756	-0.0091	-0.0412	-0.009	0.0405	0.0289	-0.0165	-0.0081	0.0037	-0.0074	-0.0091	0.0188	0.0711	0.026	0.0504	0.0248	0.0461
CN(CCO)CC[C@H](CSc1ccccc1)Nc1ccc(S(=O)(=O)NC(=O)c2ccc(N3CCC([C@@H](O)c4ccccc4-c4ccc(Cl)cc4)CC3)cc2)cc1S(=O)(=O)C(F)(F)F [AZD4320] + Cc1cc2ncnn2cc1Nc1ncc2c(n1)n(C1CCOCC1)c(=O)n2C [AZD7648] (first compound max 1 µM, 7x7, partner max 10 µM)	0.0101	-0.0484	-0.0168	-0.025	-0.133	-0.0645	0.0317	-0.0471	-0.0197	-0.0258	-0.0177	0.0157	-0.0424	-0.0691	-0.0069	-0.0406	-0.0034	-0.0291	-0.0066	-0.0069
CCN(CCO)CCCOc1ccc2c(Nc3cc(CC(=O)Nc4cccc(F)c4)[nH]n3)ncnc2c1 [AZD2811] + C=CCn1c(=O)c2cnc(Nc3ccc(N4CCN(C)CC4)cc3)nc2n1-c1cccc(C(C)(C)O)n1 [AZD1775] (first compound max 1 µM, partner max 1 µM)	0.0032	-0.0144	-0.0002	-0.0086	-0.0545	0.0486	0.122	-0.036	-0.0281	-0.0176	0.0139	-0.0698	0.0089	-0.108	-0.0226	-0.0109	0.0008	0.0295	-0.0925	-0.037
COc1nnc2ccc(N3CCC(c4ccc(OCCN5CCN(C)C(=O)[C@H]5C)cc4)CC3)nn12 [AZD5153] + CC1(C)CCC(CN2CCN(c3ccc(C(=O)NS(=O)(=O)c4ccc(NCC5CCOCC5)c([N+](=O)[O-])c4)c(Oc4cnc5[nH]ccc5c4)c3)CC2)=C(c2ccc(Cl)cc2)C1 [Venetoclax] (first compound max 1 µM, 7x7, partner max 1 µM)	-0.0287	-0.0437	-0.0346	-0.0462	-0.0499	-0.0663	0.0033	-0.0399	-0.0185	-0.0124	-0.0708	0.0179	-0.085	-0.0179	0.0192	-0.0481	-0.028	-0.126	-0.0493	-0.0319
CN(CCO)CC[C@H](CSc1ccccc1)Nc1ccc(S(=O)(=O)NC(=O)c2ccc(N3CCC([C@@H](O)c4ccccc4-c4ccc(Cl)cc4)CC3)cc2)cc1S(=O)(=O)C(F)(F)F [AZD4320] + CCN(CCO)CCCOc1ccc2c(Nc3cc(CC(=O)Nc4cccc(F)c4)[nH]n3)ncnc2c1 [AZD2811] (first compound max 1 µM, 7x7, partner max 1 µM)	0.0873	0.0038	0.0025	-0.0032	-0.0664	0.134	0.0816	-0.0476	-0.0072	-0.004	-0.0231	0.0171	-0.005	0.0077	0.105	-0.0059	0.026	-0.0135	-0.0097	0.01
Cc1cc2ncnn2cc1Nc1ncc2c(n1)n(C1CCOCC1)c(=O)n2C [AZD7648] + CCN(CCO)CCCOc1ccc2c(Nc3cc(CC(=O)Nc4cccc(F)c4)[nH]n3)ncnc2c1 [AZD2811] (first compound max 10 µM, 7x7, partner max 1 µM)	-0.0331	0.0271	-0.0098	-0.0446	-0.0264	0.0835	0.0266	0.0126	0.0332	-0.0551	-0.0061	-0.0314	-0.0077	0.0195	0.0568	0.0601	0.0137	0.013	-0.0697	0.0089
CC1(C)CCC(CN2CCN(c3ccc(C(=O)NS(=O)(=O)c4ccc(NCC5CCOCC5)c([N+](=O)[O-])c4)c(Oc4cnc5[nH]ccc5c4)c3)CC2)=C(c2ccc(Cl)cc2)C1 [Venetoclax] + Cn1cnc2c(F)c(Nc3ccc(Br)cc3Cl)c(C(=O)NOCCO)cc21 [Selumetinib] (first compound max 1 µM, 7x7, partner max 3 µM)	-0.0455	-0.0459	-0.0106	-0.0161	-0.0413	-0.0187	-0.0118	-0.042	-0.0202	-0.0391	-0.0478	0.0783	-0.0525	-0.0351	-0.011	-0.0431	-0.0251	-0.0003	-0.141	0.009
Cn1cnc2c(F)c(Nc3ccc(Br)cc3Cl)c(C(=O)NOCCO)cc21 [Selumetinib] + CC(C)n1c(=O)n(C)c2cnc3cc(F)c(-c4ccc(OCCCN5CCCCC5)nc4)cc3c21 [AZD1390] (first compound max 10 µM, 7x7, partner max 0.3 µM)	-0.0477	-0.0484	0.0114	0.0068	-0.0426	-0.0078	0.0032	-0.0456	-0.0376	-0.0375	-0.0402	-0.0306	-0.0364	-0.0486	-0.0186	-0.042	-0.0423	-0.053	-0.0391	-0.0162
COc1cccc(OCCCN)c1-c1cc(Nc2cnc(C#N)cn2)n[nH]1 [Prexasertib] + O=C(c1cc(Cc2n[nH]c(=O)c3ccccc23)ccc1F)N1CCN(C(=O)C2CC2)CC1 [Olaparib] (first compound max 1 µM, 7x7, partner max 10 µM)	-0.0147	-0.0164	-0.248	-0.0164	-0.0229	-0.0102	-0.0312	-0.0444	-0.0789	-0.0643	-0.0494	-0.0224	-0.0228	-0.0756	-0.0214	-0.0639	-0.0472	-0.0572	-0.0406	0.0186
COc1cccc(OCCCN)c1-c1cc(Nc2cnc(C#N)cn2)n[nH]1 [Prexasertib] + Cc1cc2ncnn2cc1Nc1ncc2c(n1)n(C1CCOCC1)c(=O)n2C [AZD7648] (first compound max 1 µM, 7x7, partner max 10 µM)	-0.0143	-0.0095	-0.0081	0.0307	-0.0211	-0.0163	0.0085	0.0141	-0.0355	-0.0178	0.0271	-0.0094	-0.0001	0.0278	-0.0038	-0.0326	-0.0454	0.0353	-0.0289	0.0364
Cc1c2c(nn1C)CSCc1cc(n(C)n1)CSc1cc(c3ccccc3c1)OCCCc1c(C(=O)O)n(C)c3c-2c(Cl)ccc13 [AZD5991] + Cn1cnc2c(F)c(Nc3ccc(Br)cc3Cl)c(C(=O)NOCCO)cc21 [Selumetinib] (first compound max 1 µM, 7x7, partner max 3 µM)	-0.0772	0.0588	0.0896	-0.0139	0.0366	0.0906	-0.0124	-0.0378	0.0409	-0.102	-0.0125	0.0409	-0.0354	-0.0116	0.0123	-0.0733	0.016	0.0354	0.07	0.0289
CN(C)CCCOc1ccc(-c2ccc3ncc4c(c3c2)n(C2CCOCC2)c(=O)n4C)cn1 [AZD0156] + O=C(c1cc(Cc2n[nH]c(=O)c3ccccc23)ccc1F)N1CCN(C(=O)C2CC2)CC1 [Olaparib] (first compound max 3 µM, partner max 3 µM)	-0.0022	0.0824	0.0292	0.0813	-0.0673	-0.0093	0.0448	-0.0305	0.0509	0.0304	-0.0615	0.21	0.0068	0.0671	0.167	0.017	0.0292	0.0815	0.24	0.122

— the supplement of paper PMC11061612
